Laboratory results published in US20250213547A1, “METHODS OF TREATING NEUROLOGICAL DISEASES” (priority 2022, published 2025).
“And” between values parts separate entries of the source, which are not always exact repeats. Identical values can stand only once.

What was measured:
Format in all cases: in vivo, human
[1] = system: seizure frequency in developmental and/or epileptic encephalopathy patients; assay: Adult DEE patients: antiseizure efficacy (seizure frequency)
Description: (§1) The third clinical trial was a randomized, double-blind, placebo controlled study. […] After the completion of Part A, 16 patients continued in Part B with open-label treatment for 60 additional days. Patients were included in the trial if they were 18-65 years of age with an established diagnosis of DEE, such as Lennox-Gastaut syndrome, Dravet syndrome, or tuberous sclerosis complex. For enrollment, patients were required to have had at least two bilateral motor seizures per month in the three months prior. In addition, during the 4-week baseline period prior to dosing, patients were required to have incurred at least one bilateral motor seizure. Exclusion criteria included abnormal ECG, degenerative eye disease, or admission to emergency care for treatment of status epilepticus that required mechanical ventilation.
(§2) Only patients having at least one bilateral seizure during the baseline study were eligible to continue. […] The range of seizure types included tonic-clonic, drop seizures, tonic, atonic, bilateral clonic, myoclonic-atonic, myotonic-tonic-clonic, and focal seizures. Aside from seizure history, subjects were also enrolled based on an establish diagnosis of DEE, such as Lennox-Gastaut syndrome (LGS) and Dravet syndrome (DS), tuberous sclerosis complex, and a history of special education or an overall intellectual quotient of <70. […] Subjects could continue taking 1-4 anti-seizure medicines (ASM), with the exception of stiripentol, during the study.
FIG. 9A depicts the study paradigm and FIG. 9B depicts the patient disposition. […] Part B consisted of an open-label 85-day extension study to ensure long-term safety and tolerability. The first 20 days of part A consisted of a tolerability titration phase, and thereafter a maintenance phase lasting from days 21-30.

plasma 24HC [2] = assay: Healthy Japanese subjects, Part 2: plasma 24HC pharmacodynamics
Protocol: TAK-935 or placebo was administered to the 9 subjects at the dose of 100 mg BID from Day 1 to Day 7, then 200 mg BID from Day 8 to Day 14, and finally 300 mg BID from Day 15 to Day 21, and safety, PK and PD were investigated. The planned dose levels of TAK-935 to be evaluated are outlined in Table 40a.
Blood samples for PD analysis of plasma 24HC level were collected into blood collection tubes (vacutainer) containing the anticoagulant K2EDTA.
The PD assessments described below were performed at the time points stipulated in the schedule of procedures. The additional PD endpoints included the following PD parameters for plasma 24HC: […]

[3] = Adult DEE patients (Part A/Part B): safety and tolerability
Description: as §1
as §2, with “study. […]” for “study.”
The safety and tolerability assessments included blood pressure, heart rate, respiratory rate, temperature, treatment-emergent adverse effects, clinical laboratory tests, electrocardiogram data, neurological and ophthalmic examination, and the Columbia-suicide severity rating scale (C-SSRS).
Patients were dosed 100 mg, 200 mg, or 300 mg BID. Dosage (mg BID) in each interval reflects the final dose during that interval. Fields showing 0 mg in days 1-10, 11-20, and 21-30 intervals are patients who were assigned to the placebo group in Part A of the study.

plasma 24HC [4] = assay: Single dose pharmacodynamics: plasma 24HC
Protocol: The concentration of 24HC was measured by obtaining an 8 ml blood sample collected 30 minutes pre-dose time and 0.5, 1, 2, 4, 6, 8, 12, and 16 hours prior to dosing day, and then 30 minutes pre-dose time and at times 0.5, 1, 2, 4, 6, 8, 12, 16, 24, 48, 72, and 96 hours post-dose. Plasma 24HC levels were measured by incubating plasma in sodium hydroxide and methanol and then performing liquid-liquid extraction and HPLC-MS/MS multiple reaction monitoring. […] Assay quality control measures, parameter analyses, and statistical analyses were performed as described in example 3. […] All dosage groups returned to 24HC baseline values by 96 hours.

[5] = Day 21 after 100 mg BID, 200 mg BID, and 300 mg BID, mean
[6] = multiple doses 100 mg BID, 200 mg BID, and 300 mg BID (Day 21), mean

O=C(c1cccnc1-c1ccncc1)N1CCC(O)(Cc2ccccc2)CC1 [soticlestat]
change in seizure frequency from baseline, individual patients ([1]; Part A, three patients treated concurrently with perampanel): +107% and +465% and +4%
median percent change from baseline seizure frequency ([1]; Part B maintenance, days 42-85 (n=16)): −36.38%
median percent change from baseline seizure frequency ([1]; Part B, excluding patients taking perampanel (n=13)): −44.66%
change in seizure frequency from baseline, individual patients ([1]; Part B, three patients taking perampanel): +297% and +398% and +175%
median seizure frequency ([1]; all completers except those taking perampanel): 25.60 per 28 days
reduction in seizure frequency in two patients ([1]; last 4 weeks/month of treatment): 100%
median percent change from baseline seizure frequency ([1]; last 28 days of Part B (post-hoc)): −60.74%
maximum mean decrease of trough plasma 24HC from time-matched baseline (plasma 24HC [2]; Day 21, up-titration to 300 mg BID): about 88%
AUEC24 of plasma 24HC (plasma 24HC [2]; [5]): 124.2 ng·h/mL
AVECτ of plasma 24HC (AUEC during a dosing interval) (plasma 24HC [2]; [5]): 61.28 ng·h/mL
E12 of plasma 24HC (observed effect at 12 hours) (plasma 24HC [2]; [5]): 5.443 ng/mL
E24 of plasma 24HC (observed effect at 24 hours) (plasma 24HC [2]; [5]): 5.013 ng/mL
Emax of plasma 24HC (plasma 24HC [2]; [5]): 4.640 ng/mL
Time to Emax of plasma 24HC (plasma 24HC [2]; Day 21 after 100 mg BID, 200 mg BID, and 300 mg BID, median): 6.000 h
Emax (plasma 24HC [2]; Homo sapiens, 504 h, multiple doses 100 mg BID, 200 mg BID, and 300 mg BID (Day 21), mean, read-out: % change from Baseline in Emax of plasma 24HC): -86.7%
% change from Baseline in AUEC24 of plasma 24HC (plasma 24HC [2]; [6]): −86.75%
% change from Baseline in AUECτ of plasma 24HC (plasma 24HC [2]; [6]): −86.62%
% change from Baseline in E12 of plasma 24HC (plasma 24HC [2]; [6]): −85.83%
% change from Baseline in E24 of plasma 24HC (plasma 24HC [2]; [6]): −87.67%
Upper respiratory tract infection, n participants ([3]; Part A, soticlestat (n = 14)): 2 n
Upper respiratory tract infection, n participants ([3]; Part B open-label, all (n = 16)): 1 n
Dysarthria, n participants ([3]; human, in vivo, 30 days): 3 n
Fatigue, n participants ([3]; human, in vivo, 30 days): 2 n
Headache, n participants ([3]; human, in vivo, 30 days): 2 n
Lethargy, n participants ([3]; human, in vivo, 30 days): 2 n
TEAE incidence ([3]; human, in vivo, 30 days): 71.4%
deaths ([3]; soticlestat arm): no deaths
maximum 24HC decrease (plasma 24HC [4]; 900 mg single dose, 16 hours post-dose): approximately 23%
AUEC96 decrease compared to placebo (plasma 24HC [4]; single dose): approximately 28.7%
